The values that follow come from patent US9738599B2, “Thromboxane receptor antagonists” (UNIVERSITY COLLEGE DUBLIN, NATIONAL UNIVERSITY OF IRELAND, …, priority 2012, dated 2017).

One assay addresses T1, TPβ (Homo sapiens, UniProt P21731).
T1 construct: expressed in transfected cells
Kind of assay: U46619-induced [Ca2+]i mobilization in HEK.TPβ cells. The class given is cell-based. The following applies: for Reduction of U46619-mediated calcium mobilization in HEK.TPβ cells: at 1 & 10 μM concentrations; for Calcium mobilization, Percentage of Control, TPβ / remaining activity at 1 µM: 1 μM U46619, HEK.TPβ, mean ± S.E.M.; for remaining activity at 1 µM: read-out: Calcium mobilization, Percentage of Control, TPβ; for inhibition at 0.5 µM: antagonist 0.5 μM, read-out: Inhibition of U46619-mediated responses in HEK.TPβ cells. The text has this: (§1) The appropriate functional test for the evaluation of the agonistic and/or antagonistic potency of the compounds of the invention is the determination of calcium flux. Both TPα and […] are coupled to the G-protein Gαq. Therefore, stimulation of these receptors ultimately leads to a release of intracellular calcium ([Ca^2+]i) from intracellular stores. Consequently, the determination of [Ca^2+]i flux represents an appropriate functional test for the evaluation of the agonistic/antagonistic potency of compounds of the invention. Calcium can be measured using a molecule characterized by the covalent combination of a Ca^2+ chelating group and a fluorophore group. The Ca^2+ binding properties of these indicators are formed by the presence of a tetracarboxylic acid core as found for example in EGTA (ethylene glycol bis(2-aminoethyl) tetraacetic acid). Binding of Ca^2+ produces a wavelength shift in either the excitation or emission fluorescence spectra or a change in the emission intensity. Whereas the Ca^2+ binding to EGTA is pH dependent, recent dyes are designed from an EGTA derivative, BAPTA (1, 2-Bis(2-Aminophenoxy)ethane-N, N, N′, N′-Tetraacetic Acid). Loading of these dyes inside cells commonly uses esterified forms (acetoxymethyl ester), which are able to cross the cell membranes and are subsequently hydrolyzed by esterases inside the cell.
(§2) Estimation of [Ca^2+]i flux is calculated from the fluorescence signal (F). For calibration, the maximal fluorescence (Fmax, Ca^2+-saturated form of the dye) as well as minimal fluorescence (Fmin, Ca^2+-free form of the dye) must be determined. These parameters are determined usually in situ after the experiment, for example by subsequent addition to the mixture of a cell-disrupting agent that releases all Ca^2+ such as Triton X100 and a potent Ca^2+-chelating agent such as EGTA. After subtraction of background fluorescence, [Ca^2+]i flux can be calculated for non-ratiometric indicators.
(§3) Intracellular [Ca^2+]i fluxes were measured using a fluorescence plate reader following a modified protocol of Kassack et al., Quantitative comparison of functional screening by measuring intracellular Ca^2+ with radioligand binding at recombinant human dopamine receptors. AAPS Pharmsci, 2002, 4(4); 102-111, in cell lines (e.g. HEK293 or other cell type) endogenously-expressing or over-expressing either TPα, TPβ or any other receptor or protein to be screened.
(§4) By way of example, HEK 293 cells which have been grown for 3-4 days in normal growth media (minimum essential media containing 10% FBS and 2 mmol/l L-glutamine), under normal growth conditions (37° C., in humidified 5% CO2 atmosphere) are washed and harvested in KREBs-HEPES buffer (118 mM NaCl, 4.7 mM KCl, 1.2 mM MgSO4, 1.2 mM KH2PO4, 4.2 mM NaHCO3, 11.7 mM D-glucose, 1.3 mM CaCl2, 10 mM HEPES, pH 7.4). Cells are then incubated with 3 µM Fluo-4 in KREBs-HEPES buffer containing 1% Pluoronic F-127, for 1 hr at 25° C. with agitation. Thereafter, cells are washed in KREBs-HEPES buffer containing 0.5% bovine serum albumin and resuspended at a final concentration of 3×10^5 cells/ml. Approximately, 5.4×10^4 cells per well are plated in a 96-well plate and pre-incubated with test compounds for 10 min prior to measuring the fluorescence intensity at 520 nm for 25 seconds at 1 second intervals to monitor baseline using the Fluoroskan Ascent. Agonist (e.g., 1 μM U46619) is injected into separate wells by the automatic pipettor and fluorescence intensity is monitored at 520 nm for 75 seconds at 1 second intervals. Thereafter, Triton X100 and EGTA are added sequentially where Fmax refers to maximal fluorescence intensity measured after permeabilization of the cells with 2% Triton X100 and Fmin refers to fluorescence intensity measured after addition of 1 mM EGTA.
(§5) The dye Fluo-4 has its excitation peak at 480 nm, in the visible spectra, which spare cells to be damaged by UV (340-360 nm) stimulation and reduces auto-fluorescence of cells. […]
For orientation: Calcium flux is commonly read through the fluorescence of an indicator in the cells.

The target of another assay is T2, TPα (Homo sapiens, UniProt P21731).
T2 construct: expressed in transfected cells
T2 sequence (P21731 1-343): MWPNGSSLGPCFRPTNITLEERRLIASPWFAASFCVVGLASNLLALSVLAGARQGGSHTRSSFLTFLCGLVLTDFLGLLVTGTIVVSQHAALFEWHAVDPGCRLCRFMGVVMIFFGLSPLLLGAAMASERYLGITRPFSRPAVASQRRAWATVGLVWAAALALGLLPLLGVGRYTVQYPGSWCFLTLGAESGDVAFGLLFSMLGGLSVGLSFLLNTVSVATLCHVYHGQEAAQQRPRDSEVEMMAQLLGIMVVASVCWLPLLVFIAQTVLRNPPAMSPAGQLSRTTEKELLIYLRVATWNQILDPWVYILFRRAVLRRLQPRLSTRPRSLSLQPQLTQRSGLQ
Kind of assay: U46619-induced [Ca2+]i mobilization in HEK.TPα cells. It is filed as cell-based. The following applies: 1 μM U46619, mean ± S.E.M.
Description: as §1, §2, §3, §4, §5

Another assay concerns platelets in whole blood. Kind of assay: U46619-mediated platelet aggregation in whole blood (Sysmex haematological analyzer). It is filed as cell-based, human. The following applies: antagonist 0.1 μM, 1 μM U46619 for 3 min. The protocol: From an efficacy point of view, this is an important assay and, physiologically, relevant with respect to the therapeutic target.
Initially, the Sysmex haematological analyzer was used to examine the effect of the TP antagonists at a single concentration (0.1 μM) on U46619 (1 μM)-mediated platelet aggregation in whole blood.
FIG. 3 illustrates effects of the TP antagonist compounds on U46619-mediated platelet aggregation. Blood was taken form healthy volunteer by venupuncture into syringes containing 3.8% sodium citrate, 10 μM Indomethacin, such that the ratio of anticoagulant: blood was 1:9. The blood was aliquoted and incubated for 10 min with TP20 and selected NTP compounds, as indicated, where the antagonist were used at 0.1 μM prior to stimulation with 1 μM U46619 for 3 min. The blood was fixed with formaldehyde and platelet numbers counted using the Sysmex haematological analyzer. Data is presented as the mean percentage of control or non-treated blood sample (Percentage of Control; %) and represent data from 3 independent experiments were samples were treated in duplicate.

T1 sequence (P21731 1-407 isoform P21731-2): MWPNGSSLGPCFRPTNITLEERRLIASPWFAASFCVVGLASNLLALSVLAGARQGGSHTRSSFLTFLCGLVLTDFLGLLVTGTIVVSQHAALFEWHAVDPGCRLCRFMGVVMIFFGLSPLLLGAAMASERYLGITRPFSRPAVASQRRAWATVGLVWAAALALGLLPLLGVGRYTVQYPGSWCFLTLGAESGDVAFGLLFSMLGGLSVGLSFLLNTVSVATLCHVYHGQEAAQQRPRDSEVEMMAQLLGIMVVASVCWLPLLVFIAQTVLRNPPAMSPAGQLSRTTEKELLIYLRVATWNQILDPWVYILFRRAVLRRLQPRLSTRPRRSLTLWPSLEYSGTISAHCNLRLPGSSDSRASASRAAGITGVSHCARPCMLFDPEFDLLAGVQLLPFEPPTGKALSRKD

Take `Cc1ccc(Nc2ccc([N+](=O)[O-])cc2S(=O)(=O)NC(=O)NC(C)(C)C)cc1` [BM573, reference compound]: on TPβ, the “Reduction of U46619-mediated calcium mobilization in HEK.TPβ cells” value is recorded as “potently inhibited”.
Turning to `COc1ccc(-c2cccc(Oc3ccc(C(F)(F)F)cc3S(=O)(=O)NC(=O)NC(C)(C)C)c2)cc1` [NTP3, N-(tert-butylcarbamoyl)-2-((4′-methoxy-[1,1-biphenyl]-3-yl)oxy)-5-(trifluoromethyl) benzenesulfonamide], the figures for the “Calcium mobilization, Percentage of Control, TPα” value on TPα (antagonist 1 μM) and on TPα (antagonist 10 μM) were 69.6 ± 5.92% and 41.6 ± 5.45%, respectively. For the same compound, the “Calcium mobilization, Percentage of Control, TPβ” value was found to be 46.0 ± 5.92% at TPβ (antagonist 1 μM) and 14.8 ± 2.44% at TPβ (antagonist 10 μM).
For `COc1ccc(-c2cccc(Oc3ccc(F)cc3S(=O)(=O)NC(=O)NC(C)(C)C)c2)cc1` [NTP8, N-(tert-butylcarbamoyl)-5-fluoro-2-((4′-methoxy-[1,1′-biphenyl]-3-yl)oxy)benzene-sulfonamide], the remaining activity at 1 µM on TPβ (antagonist 1 μM) is 5.94 ± 1.85%.
In the case of `COc1ccc(-c2cccc(Oc3ccc(C(=O)N4CC(O)C4)cc3S(=O)(=O)NC(=O)NC(C)(C)C)c2)cc1` [NTP23, N-(tert-butylcarbamoyl)-5-(3-hydroxyazetidine-1-carbonyl)-2-((4′-methoxy-[1,1′-biphenyl]-3-yl)oxy)benzenesulfonamide], at TPβ (antagonist 1 μM), the remaining activity at 1 µM was 4.84 ± 2.75%.
For the compound `COc1ccc(-c2cccc(Oc3ccc(S(C)(=O)=O)cc3S(=O)(=O)NC(=O)NC(C)(C)C)c2)cc1` [NTP27, N-(tert-butylcarbamoyl)-2-((4′-methoxy-[1,1′-biphenyl]-3-yl)oxy)-5-(methylsulfonyl) benzenesulfonamide], the results for the “Calcium mobilization, Percentage of Control, TPα” value at TPα (antagonist 1 μM) and at TPα (antagonist 10 μM) were 81.1 ± 10.2% and 68.4 ± 4.56%, respectively. Also, the “Calcium mobilization, Percentage of Control, TPβ” value was 36.4 ± 3.80% at TPβ (antagonist 1 μM) and 16.3 ± 2.39% at TPβ (antagonist 10 μM).
The corresponding values for `COc1ccc(-c2cccc(Oc3ccc(Cl)cc3S(=O)(=O)NC(=O)NC(C)(C)C)c2)cc1` [NTP30, N-(tert-butylcarbamoyl)-5-chloro-2-((4′-methoxy-[1,1′-biphenyl]-3-yl)oxy) benzenesulfonamide] are 52.2 ± 3.90%, 23.3 ± 3.63%, 46.5 ± 5.86% and 9.31 ± 1.57%.
On the same counts, the results for `COc1ccc(-c2cccc(Oc3cc(C)c(C#N)cc3S(=O)(=O)NC(=O)NC(C)(C)C)c2)cc1` [NTP32, N-(tert-butylcarbamoyl)-5-cyano-2-((4′-methoxy-[1,1′-biphenyl]-3-yl)oxy)-4-methyl benzenesulfonamide] are 80.3 ± 4.21%, 69.3 ± 2.07%, 93.6 ± 4.06% and 46.2 ± 4.83%.
What is called inhibition is the drop in the measured response relative to a control, in per cent. As for `COc1ccc(-c2cccc(Oc3ccc([N+](=O)[O-])cc3S(=O)(=O)NC(=O)NC(C)(C)C)c2)cc1` [TP20, N-(tert-butylcarbamoyl)-2-((4′-methoxy-[1,1′-biphenyl]-3-yl)oxy)-5-nitrobenzene-sulfonamide], the “Inhibition of the U46619-mediated reduction in platelet number” value in the assay with platelets in whole blood is on record as “almost completely inhibited”. Moreover, on TPβ, the inhibition at 0.5 µM is > 50% and the “Reduction of U46619-mediated calcium mobilization in HEK.TPβ cells” value is given as “approx. 90%”.
Take `CC(C)(C)NC(=O)NS(=O)(=O)c1cc([N+](=O)[O-])ccc1Oc1cccc(-c2ccc(C(F)(F)F)cc2)c1` [XII]: on TPβ, the inhibition at 0.5 µM is > 50%.
